Data as given in PMC4750701, “Role of Mitochondrial RNA Polymerase in the Toxicity of Nucleotide Inhibitors of Hepatitis C Virus” (Antimicrobial Agents and Chemotherapy, 2016).

How the values were obtained:
[1] = Cytotoxicity in primary human hepatocytes, 5 days; conditions: human, primary human hepatocytes
Method: (§4) Primary human hepatocytes were from Bioreclamation IVT (Westbury, NY) or Life Technologies (Carlsbad, CA).
(§5) All cells were cultured at 37°C in a 5% CO2 incubator with 90% humidity unless noted otherwise. […] All cells were treated with the various compounds for 5 days, except for human erythroid and myeloid progenitors, which were treated for 14 days. After the incubation period, cell viability was measured by the addition of CellTiter Glo viability reagents (Promega, Madison, WI). The luminescence signal was quantified on an Envision luminescence plate reader (PerkinElmer, Waltham, MA) after incubation of the reagents and cells for 10 min at room temperature. […] CC50 values were calculated as the average of the results of three or four independent experiments.

[2] = Cytotoxicity in Huh7 cells, 5-day treatment (CellTiter Glo); conditions: human, Huh-7 cells
Method: as §5
Cell Culture and Cytotoxicity Studies
(§6) The Huh-7 cells were maintained in growth medium containing Dulbecco's Modified Eagle
(§7) Medium (DMEM, Cellgro) supplemented with 1% Nonessential Amino Acids (NEAA, Cellgro,
(§8) Manassas, VA), 10% fetal bovine serum (FBS, HyClone, Logan, UT) and 1% Penicillin-
(§9) streptomycin-glutamate (PSG, Invitrogen, Carlsbad, CA). The cells were passaged twice weekly
(§10) and maintained at 90% confluence densities.
(§11) The HepG2 cells were maintained in Eagle’s Minimum Essential Medium (EMEM) from ATCC
(§12) (Manassas, VA) supplemented with 10% FBS, 100 units/mL penicillin and 100 µg/mL
(§13) streptomycin (P/S) (Gibco). The cells were passaged twice weekly and maintained at 90%
(§14) The PC-3 cells were maintained in Kaighn’s F12 medium (Gibco, Carlsbad, CA) supplemented
(§15) with 10% FBS (HyClone, Logan, UT), 100 units/mL penicillin and 100 µg/mL streptomycin
(§16) (P/S) (Gibco). The cells were passaged twice weekly and maintained at 90% confluence. Cells
(§17) between passages 4 and 15 were used in the assays.
(§18) The fibroblast cell line MRC-5 cell line derived from normal lung tissue, was purchased from
(§19) ATCC (Manassas, VA) and cultured in Minimum Essential Medium (MEM) (Cellgro, Manassas,
(§20) VA) supplemented with 10% FBS (HyClone, Logan, UT) and 1% PSG (Invitrogen). The cells
(§21) were passaged twice weekly and maintained at 90% confluence densities.

[3] = Cytotoxicity in stimulated PBMCs, 5 days; conditions: human, stimulated PBMCs
Method: (§22) Human peripheral blood mononuclear cells (PBMCs) were isolated from human buffy coats obtained from healthy volunteers (Stanford Blood Bank, Palo Alto, CA) using standard Ficoll separation and stimulated as described elsewhere ([13]) and were tested at both quiescent and stimulated stages. Quiescent PBMCs were stimulated with 10 units per ml of recombinant human interleukin 2 (hIL-2) and 1 μg per ml phytohemagglutinin P (PHA-P) for 48 h prior to drug treatment.
as §5
(§23) Human peripheral blood mononuclear cells (PBMCs) were isolated from human buffy coats
(§24) obtained from normal healthy volunteers (Stanford Medical School Blood Center, Palo Alto,
(§25) CA). Total PBMCs were isolated from buffy coats using standard Ficoll separation and sterile
(§26) cellular isolation techniques performed in a bio-safety cabinet (1). Except where noted, the
(§27) procedure was carried out at room temperature. The final PBMCs pellet was resuspended in
(§28) Logan, UT), penicillin 100 units/mL and streptomycin 100 µg/mL (Gibco). For quiescent
(§29) PBMCs cultures, total cells were seeded in 96-well plates at a density of 1 x 10^6 cells per well, followed by immediate drug treatment. Stimulated PBMCs cultures were set up by seeding the freshly isolated PBMCs in T-175cm2 tissue culture flasks in 100 mL of RPMI containing the same components as the ones used for the quiescent PBMCs but with the addition of 10 units per mL of recombinant human interleukin-2 (hIL-2, Roche, Indianapolis, IN), and 1 µg per mL phytohemagglutinin-P (PHA-P, Sigma-Aldrich, St. Louis, MO) at density of 2  10^6 cells per mL for 48 hours at 37C in a 5% CO2 incubator with 90% humidity, prior to drug treatment.

[4] = Bone marrow myeloid progenitor colony assay, 14 days; assay type: cell-based, human; conditions: human, human bone marrow myeloid progenitors, read-out: Mean CC50 ± SD in Bone marrow cells Myeloid
[5] = test system: mitochondrial spare respiratory capacity; experiment: Oxygen consumption rate / spare respiratory capacity in PC-3 cells; conditions: human, pH 7.4
[6] = test system: mitochondrial spare respiratory capacity in PC-3 cells; experiment: as above; conditions: PC-3 cells, 3-day treatments
[7] = test system: nuclear DNA-encoded succinate dehydrogenase (SDH-A; complex II) protein level; experiment: Nuclear protein synthesis (SDH-A, MitoBiogenesis in-cell ELISA) in PC-3 cells; assay type: cell-based, human; conditions: human, read-out: Mean CC50 ± SD causing General cellular toxicity: Protein synthesis
Method: (§1) PC-3 cells were treated with the compounds for 5 days and analyzed with the MitoTox MitoBiogenesis in-cell enzyme-linked immunosorbent assay (ELISA) kit (MitoSciences/Abcam, Eugene, Oregon) as described previously ([13]). The assay uses quantitative immunocytochemistry to measure the protein levels of nuclear DNA-encoded succinate dehydrogenase (SDH-A; complex II [succinate dehydrogenase]) and mitochondrial DNA-encoded cytochrome c oxidase (COX-1; complex IV [cytochrome c oxidase]) in cultured cells.

[8] = Cytotoxicity in quiescent PBMCs, 5 days; conditions: human, quiescent PBMCs
Method: as §22, §5, §23, §24, §25, §26, §27, §28, §29

[9] = Cytotoxicity in HepG2 (galactose) cells, 5-day treatment; conditions: human, HepG2 cells (galactose)
Method: as §5
Cell Culture and Cytotoxicity Studies
as §6, §7, §8, §9, §10, §11, §12, §13, §14, §15, §16, §17, §18, §19, §20, §21

[10] = test system: mitochondrial DNA-encoded cytochrome c oxidase (COX-1; complex IV) protein level; experiment: Mitochondrial protein synthesis assay (COX-1, MitoBiogenesis in-cell ELISA) in PC-3 cells; assay type: cell-based, human; conditions: human; PC-3 cells, COX-1, 5 days; read-out: Mean CC50 ± SD causing Mitochondrial toxicity: Protein synthesis
Method: as §1

[11] = test system: mitochondrial DNA-encoded cytochrome c oxidase (COX-1); experiment: as above; assay type: cell-based, human; conditions: PC-3 cells
Method: as §1

[12] = Cytotoxicity in MT-4 T-cells, 5-day treatment; conditions: human, MT-4 cells
Method: as §4, §5

[13] = Cytotoxicity / ATP level in PC-3 cells, 5-day treatment; conditions: human, PC-3 cells
Method: as §5
Cell Culture and Cytotoxicity Studies
as §6, §7, §8, §9, §10, §11, §12, §13, §14, §15, §16, §17, §18, §19, §20, §21

[14] = Bone marrow erythroid progenitor colony assay, 14 days; assay type: cell-based, human; conditions: human, human bone marrow erythroid progenitors, read-out: Mean CC50 ± SD in Bone marrow cells Erythroid
[15] = Cytotoxicity in MRC5 fibroblasts, 5-day treatment; conditions: human, MRC5 fibroblasts
Method: as §5
Cell Culture and Cytotoxicity Studies
as §6, §7, §8, §9, §10, §11, §12, §13, §14, §15, §16, §17, §18, §19, §20, §21

[16] = biological target: T1, Recombinant human DNA polymerase beta (Homo sapiens, UniProt P06746); experiment: Inhibition of human DNA polymerase beta; assay type: biochemical; conditions: triphosphate form of the compound tested; read-out: Mean IC50 ± SD for DNA Pol β
T1 construct: host or cells: E. coli
From the text: (§2) Activated fish sperm DNA was purchased from USB/Affymetrix (Santa Clara, CA) and used as a template for the DNA polymerases alpha, beta, and gamma. The DNA template used in the RNA Pol II assay was a 1,188-bp restriction fragment containing the cytomegalovirus (CMV) immediate early promoter (Promega, Madison, WI). The RNA and DNA oligonucleotides used in the mitochondrial RNA polymerase assay (see Table S1 in the supplemental material) were synthesized and PAGE purified by Thermo Scientific/Dharmacon (Lafayette, CO). RNA primer R12 was 5′-^32P-phosphorylated with [γ-^32P]ATP (3,000 Ci/mmol) and T4 kinase (New England BioLabs, Ipswich, MA).
(§3) Human DNA polymerase alpha, isolated from HeLa cell extracts, was from CHIMERx (Madison, WI). Recombinant human DNA polymerase beta, expressed in E. coli, was a gift from Zucai Suo at The Ohio State University. Recombinant human DNA polymerase gamma (including both the large subunit and the small subunit) was cloned, expressed, and purified from insect cells by Gilead Sciences (Foster City, CA) ([13]). RNA PolII was purchased as part of the HeLaScribe nuclear extract in vitro transcription system kit from Promega (Madison, WI). The recombinant human PolRMT and the transcription factors mitochondrial transcription factor A (mtTFA) and B2 (mtTFB2) were purchased from Enzymax (Lexington, KY). FLAG epitope-tagged RNA PolI and PolIII complexes were isolated from rat NSN1 cells and HeLa cells, respectively ([17], [18]). The inhibition of DNA polymerases alpha, beta, and gamma, PolRMT, and PolII and the rate of single-nucleotide incorporation by PolRMT have been described previously in detail ([12], [13], [19]). Inhibition of RNA PolI and PolIII was studied using published methods ([20], [21]). All concentrations were final unless noted otherwise. For the RNA PolI inhibition assay, a reaction mixture containing 50 mM HEPES (pH 7.9), 20% glycerol, 100 mM KCl, 1 mM dithiothreitol (DTT), 50 μg/ml calf thymus DNA, 4 mM MgCl2, 5 or 80 μM UTP (0.25 μl of [5,6-^3H]UTP, >25 Ci/mmol; PerkinElmer), 1 mM noncompeting NTP, competing NTP (5 μM for GTP, CTP, and UTP and 25 μM for ATP), and various concentrations (0 to 500 μM) of NTP analogs was preincubated at 30°C for 5 min. […] After incubation at 30°C for 20 min to 1 h, the reactions were terminated by pipetting the mixtures onto DEAE-cellulose discs (DE81; Whatman), and the products analyzed as described previously ([20], [21]).

[17] = biological target: T2, Recombinant human DNA polymerase gamma (Homo sapiens, UniProt P54098); experiment: Inhibition of human DNA polymerase gamma; assay type: biochemical; conditions: triphosphate form of the compound tested; read-out: Mean IC50 ± SD for DNA Pol γ
T2 construct: made in house; host or cells: insect cells
T2 sequence (P54098 1-1239): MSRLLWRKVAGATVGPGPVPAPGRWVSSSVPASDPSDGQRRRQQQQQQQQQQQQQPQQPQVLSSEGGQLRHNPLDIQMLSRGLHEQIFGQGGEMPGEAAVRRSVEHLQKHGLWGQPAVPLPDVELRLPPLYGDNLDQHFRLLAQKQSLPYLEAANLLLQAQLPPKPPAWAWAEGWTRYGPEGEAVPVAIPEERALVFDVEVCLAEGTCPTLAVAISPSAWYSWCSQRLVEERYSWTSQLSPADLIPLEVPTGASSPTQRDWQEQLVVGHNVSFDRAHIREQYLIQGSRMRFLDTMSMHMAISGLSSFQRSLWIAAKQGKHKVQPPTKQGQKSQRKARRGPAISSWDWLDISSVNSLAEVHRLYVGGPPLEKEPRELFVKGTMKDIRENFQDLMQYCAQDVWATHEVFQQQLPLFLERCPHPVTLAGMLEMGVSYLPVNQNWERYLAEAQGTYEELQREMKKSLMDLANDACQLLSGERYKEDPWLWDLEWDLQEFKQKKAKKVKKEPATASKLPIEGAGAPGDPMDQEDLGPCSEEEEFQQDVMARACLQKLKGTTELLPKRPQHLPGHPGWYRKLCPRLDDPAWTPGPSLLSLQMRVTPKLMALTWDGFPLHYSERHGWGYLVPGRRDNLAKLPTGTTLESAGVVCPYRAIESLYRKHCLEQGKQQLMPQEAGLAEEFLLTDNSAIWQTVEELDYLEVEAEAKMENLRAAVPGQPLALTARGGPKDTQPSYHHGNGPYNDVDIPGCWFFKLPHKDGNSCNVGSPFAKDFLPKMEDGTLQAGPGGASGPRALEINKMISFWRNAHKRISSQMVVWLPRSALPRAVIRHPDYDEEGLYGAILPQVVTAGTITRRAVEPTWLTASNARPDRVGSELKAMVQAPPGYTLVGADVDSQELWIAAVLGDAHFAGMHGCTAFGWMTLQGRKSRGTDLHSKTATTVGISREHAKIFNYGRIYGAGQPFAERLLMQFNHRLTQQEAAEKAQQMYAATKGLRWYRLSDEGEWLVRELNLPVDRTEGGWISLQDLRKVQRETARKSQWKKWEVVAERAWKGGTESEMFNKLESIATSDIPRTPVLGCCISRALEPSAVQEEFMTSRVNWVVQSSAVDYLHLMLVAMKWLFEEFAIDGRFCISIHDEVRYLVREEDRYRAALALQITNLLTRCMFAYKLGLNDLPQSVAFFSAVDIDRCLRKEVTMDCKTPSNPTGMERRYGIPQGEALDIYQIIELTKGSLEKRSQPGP
T2 sequence (Q9UHN1 26-485 partner limits assumed): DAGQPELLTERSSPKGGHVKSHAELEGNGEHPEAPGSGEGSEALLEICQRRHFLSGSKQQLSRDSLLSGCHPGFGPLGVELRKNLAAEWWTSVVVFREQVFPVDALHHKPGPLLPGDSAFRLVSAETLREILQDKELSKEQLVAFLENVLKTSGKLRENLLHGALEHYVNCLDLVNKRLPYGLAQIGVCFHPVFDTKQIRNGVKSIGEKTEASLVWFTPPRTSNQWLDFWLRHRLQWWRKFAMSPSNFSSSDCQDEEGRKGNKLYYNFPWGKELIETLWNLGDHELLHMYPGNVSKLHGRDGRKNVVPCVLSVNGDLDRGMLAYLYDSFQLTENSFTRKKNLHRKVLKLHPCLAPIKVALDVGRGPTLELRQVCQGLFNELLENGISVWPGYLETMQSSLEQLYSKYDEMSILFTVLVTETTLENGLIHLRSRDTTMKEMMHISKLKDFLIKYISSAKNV
From the text: as §2, §3

RNA PolII = biological target: T3, RNA PolII (Homo sapiens, UniProt P24928+P30876); experiment: Inhibition of RNA PolII (HeLaScribe nuclear extract transcription); assay type: biochemical; conditions: nucleotide analogs (Table 6); read-out: Mean IC50 ± SD for RNA PolII
T3 construct: purchased as part of the HeLaScribe nuclear extract in vitro transcription system kit; purchased Promega (Madison, WI); host or cells: HeLa nuclear extract (endogenous enzyme)
From the text: as §2, §3

RNA PolI = biological target: T4, RNA PolI (Rattus norvegicus, UniProt O54889); experiment: RNA PolI inhibition assay; assay type: biochemical; conditions: NTP analogs 0 to 500 μM; read-out: Mean IC50 ± SD for RNA PolI
T4 construct: complexes were isolated from rat NSN1 cells and HeLa cells, respectively; made in house; host or cells: rat NSN1 cells expressing a FLAG-tagged Pol I subunit
T4 sequence (O54889 whole entry): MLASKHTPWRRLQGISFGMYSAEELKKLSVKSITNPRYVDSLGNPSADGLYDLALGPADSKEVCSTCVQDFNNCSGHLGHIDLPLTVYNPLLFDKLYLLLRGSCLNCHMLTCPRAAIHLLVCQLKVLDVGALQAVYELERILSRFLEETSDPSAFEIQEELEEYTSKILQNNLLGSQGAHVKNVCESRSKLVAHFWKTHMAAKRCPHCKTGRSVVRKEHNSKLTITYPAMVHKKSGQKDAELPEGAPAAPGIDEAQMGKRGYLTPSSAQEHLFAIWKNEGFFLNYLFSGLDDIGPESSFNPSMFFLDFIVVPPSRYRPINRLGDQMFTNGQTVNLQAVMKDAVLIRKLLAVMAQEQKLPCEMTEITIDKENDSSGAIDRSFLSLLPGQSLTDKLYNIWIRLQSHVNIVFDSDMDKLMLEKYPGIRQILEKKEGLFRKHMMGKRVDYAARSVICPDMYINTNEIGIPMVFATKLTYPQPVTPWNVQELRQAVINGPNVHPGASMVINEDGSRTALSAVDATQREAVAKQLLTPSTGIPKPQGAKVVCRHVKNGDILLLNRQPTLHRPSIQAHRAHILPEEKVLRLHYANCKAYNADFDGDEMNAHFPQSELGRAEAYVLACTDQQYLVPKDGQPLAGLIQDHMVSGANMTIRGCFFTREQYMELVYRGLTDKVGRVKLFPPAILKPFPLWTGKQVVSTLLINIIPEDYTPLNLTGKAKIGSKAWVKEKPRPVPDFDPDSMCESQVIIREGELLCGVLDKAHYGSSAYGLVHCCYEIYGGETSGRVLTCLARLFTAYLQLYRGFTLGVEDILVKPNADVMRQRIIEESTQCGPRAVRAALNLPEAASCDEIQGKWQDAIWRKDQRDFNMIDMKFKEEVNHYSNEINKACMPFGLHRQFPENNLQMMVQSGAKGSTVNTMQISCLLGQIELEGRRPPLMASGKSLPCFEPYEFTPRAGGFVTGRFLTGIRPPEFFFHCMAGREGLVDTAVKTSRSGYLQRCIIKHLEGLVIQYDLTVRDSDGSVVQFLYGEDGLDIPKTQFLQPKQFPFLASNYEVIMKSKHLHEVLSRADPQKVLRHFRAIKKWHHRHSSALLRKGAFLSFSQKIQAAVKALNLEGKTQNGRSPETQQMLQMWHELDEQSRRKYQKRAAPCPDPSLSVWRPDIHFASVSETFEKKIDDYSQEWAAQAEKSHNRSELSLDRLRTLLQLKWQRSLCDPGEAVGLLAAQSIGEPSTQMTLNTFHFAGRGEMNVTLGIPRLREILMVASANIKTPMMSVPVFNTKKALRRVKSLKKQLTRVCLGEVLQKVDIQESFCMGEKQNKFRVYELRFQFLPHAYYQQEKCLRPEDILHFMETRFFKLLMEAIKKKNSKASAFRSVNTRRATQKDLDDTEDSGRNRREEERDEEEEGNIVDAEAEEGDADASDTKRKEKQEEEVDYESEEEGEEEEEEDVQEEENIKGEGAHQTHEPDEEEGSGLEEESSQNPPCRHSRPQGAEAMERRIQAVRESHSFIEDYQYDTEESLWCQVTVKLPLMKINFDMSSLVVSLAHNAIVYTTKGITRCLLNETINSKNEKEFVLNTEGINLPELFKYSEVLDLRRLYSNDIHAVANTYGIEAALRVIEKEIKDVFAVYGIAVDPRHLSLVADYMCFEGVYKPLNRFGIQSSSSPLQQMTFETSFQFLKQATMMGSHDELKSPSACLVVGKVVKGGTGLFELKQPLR
From the text: as §3

RNA PolIII = biological target: T5, RNA PolIII (Homo sapiens, UniProt O14802+Q9NW08); experiment: RNA PolIII inhibition assay; assay type: biochemical; conditions: competing NTP 100 μM CTP and GTP, 500 μM ATP; read-out: Mean IC50 ± SD for RNA PolIII
T5 construct: complexes were isolated from rat NSN1 cells and HeLa cells, respectively; made in house; host or cells: HeLa cells expressing a FLAG-tagged Pol III subunit
From the text: as §3
The RNA PolIII inhibition assay was conducted in a similar manner, except that the concentrations of the competing NTP were modified to 100 μM for CTP and GTP and 500 μM for ATP to compensate for the low assay signal at lower NTP concentrations.

recombinant human PolRMT = biological target: T6, recombinant human PolRMT (Homo sapiens, UniProt O00411); experiment: Single-nucleotide incorporation by PolRMT; assay type: biochemical; conditions: triphosphate form, fixed saturating concentration 500 μM, rate relative to corresponding natural rNTP
T6 construct: purchased Enzymax (Lexington, KY)
T6 sequence (O00411 42-1230): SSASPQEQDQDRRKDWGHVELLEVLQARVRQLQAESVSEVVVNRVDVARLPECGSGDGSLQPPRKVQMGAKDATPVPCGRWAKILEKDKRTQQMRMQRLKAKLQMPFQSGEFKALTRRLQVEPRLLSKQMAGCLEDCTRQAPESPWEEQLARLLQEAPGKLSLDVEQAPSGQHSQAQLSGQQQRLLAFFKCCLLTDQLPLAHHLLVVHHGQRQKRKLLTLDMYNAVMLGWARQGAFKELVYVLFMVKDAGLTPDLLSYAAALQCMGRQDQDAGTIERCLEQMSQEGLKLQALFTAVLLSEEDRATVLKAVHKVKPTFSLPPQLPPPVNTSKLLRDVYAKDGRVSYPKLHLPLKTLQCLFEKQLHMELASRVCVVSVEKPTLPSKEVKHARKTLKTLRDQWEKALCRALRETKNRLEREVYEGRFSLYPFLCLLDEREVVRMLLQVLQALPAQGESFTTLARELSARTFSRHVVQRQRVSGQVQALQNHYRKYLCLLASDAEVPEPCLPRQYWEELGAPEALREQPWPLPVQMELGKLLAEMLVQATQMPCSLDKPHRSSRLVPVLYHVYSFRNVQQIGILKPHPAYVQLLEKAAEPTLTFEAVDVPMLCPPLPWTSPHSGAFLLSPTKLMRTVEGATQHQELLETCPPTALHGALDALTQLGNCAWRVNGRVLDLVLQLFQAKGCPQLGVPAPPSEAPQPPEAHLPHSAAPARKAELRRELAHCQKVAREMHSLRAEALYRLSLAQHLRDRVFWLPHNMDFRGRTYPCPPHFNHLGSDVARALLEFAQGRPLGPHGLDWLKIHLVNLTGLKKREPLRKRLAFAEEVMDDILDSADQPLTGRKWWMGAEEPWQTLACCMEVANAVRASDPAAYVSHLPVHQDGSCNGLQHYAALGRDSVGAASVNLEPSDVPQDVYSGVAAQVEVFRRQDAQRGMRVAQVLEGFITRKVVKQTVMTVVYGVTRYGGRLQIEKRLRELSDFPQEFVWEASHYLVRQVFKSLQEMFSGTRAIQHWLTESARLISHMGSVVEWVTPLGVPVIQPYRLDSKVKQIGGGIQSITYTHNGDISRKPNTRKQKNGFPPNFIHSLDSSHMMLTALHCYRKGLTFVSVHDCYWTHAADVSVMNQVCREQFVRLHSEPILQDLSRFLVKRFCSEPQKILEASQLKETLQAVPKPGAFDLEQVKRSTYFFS
From the text: as §2, §3
Supplementary Table S1: RNA primer and templates used in mitochondrial RNA
polymerase single nucleotide incorporation assay.
Oligonucleotides Sequencesa
Primer (R12) 5’-[…]-3’
Templates (D18) 3’-[…]-5’
a The bold letter in the template sequences denotes the bases that pair with the incoming NTP. […]

O=C(N[C@H](CO)[C@H](O)c1ccc([N+](=O)[O-])cc1)C(Cl)Cl [Chloramphenicol]
CC50 at 5 days [1]: > 100 µM
CC50 at 5 days [2]: > 89 µM
CC50 at 5 days [3]: > 100 µM
CC50 at 14 days [4]: > 100 µM
CC50 at 3 days [5]: 4.5 ± 1.5 µM
selectivity of effect on spare respiratory capacity versus DNA and ATP levels [6]: specifically inhibited mitochondrial spare respiratory capacity
CC50 at 5 days [7]: > 50 µM
CC50 at 5 days [8]: > 100 µM
CC50 at 5 days [9]: > 89 µM
CC50 at 5 days [10]: 2.6 ± 0.6 µM
selectivity of effect on COX-1 versus SDH-A and ATP levels ([11]; 5-day treatments): specifically inhibited COX-1 synthesis
CC50 at 5 days [12]: > 89 µM
CC50 at 5 days [13]: 16 ± 3 µM
CC50 at 14 days [14]: 82 ± 29 µM
CC50 at 5 days [15]: > 89 µM

Cc1cn([C@H]2CC[C@@H](COP(=O)(O)OP(=O)(O)OP(=O)(O)O)O2)c(=O)[nH]c1=O [3′dTTP]
IC50 [16]: 1.9 ± 0.8 µM
IC50 [17]: 1.2 ± 0.6 µM

C[C@@]1(O)[C@H](O)[C@@H](COP(=O)(O)OP(=O)(O)OP(=O)(O)O)O[C@H]1n1cnc2c(N)ncnc21 [2′CMeATP]
IC50 (RNA PolII): > 500 µM
IC50 (RNA PolI): 190 ± 40 µM
IC50 (RNA PolIII): > 500 µM

C[C@@]1(O)[C@H](O)[C@@H](COP(=O)(O)OP(=O)(O)OP(=O)(O)O)O[C@H]1n1ccc(N)nc1=O [2′CMeCTP]
IC50 (RNA PolII): > 500 µM
IC50 (RNA PolI): 260 ± 40 µM
IC50 (RNA PolIII): > 500 µM

CC(C)C(=O)OC[C@H]1O[C@@H](n2ccc(N)nc2=O)[C@](C)(F)[C@@H]1OC(=O)C(C)C [mericitabine]
Substrate incorporation (% of NTP [mean ± SD]) of PolRMT (recombinant human PolRMT): < 1 % of NTP

NC(=O)c1ncn([C@@H]2O[C@H](CO)[C@@H](O)[C@H]2O)n1 [RBV, ribavirin]
effect on mitochondrial or nuclear protein synthesis or ATP level ([11]; 5-day treatment, 10 μM): no appreciable effect
